These results are taken from PubChem BioAssay AID330 (DTP/NCI, 2004).

For the experiment, the system named is P388 leukemia ip, CD2F1 mice, survival T/C. Kind of experiment: NCI In Vivo Anticancer Drug Screen. Data for tumor model P388 Leukemia (intraperitoneal) in CD2F1 (CDF1) mice. Particulars: endpoint: median survival time, higher = longer survival. The essentials: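 Mice carrying the transplanted tumor received test compound or vehicle. Survival was recorded in each group, and the value is the treated-group measurement divided by that of the vehicle-treated control group.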

Setting [1] is: dose: 50.0 mg/kg/injection, schedule: Q01DX009 (ip), vehicle: saline with Tween-80.
Setting [2] is: dose: 100.0 mg/kg/injection, schedule: Q01DX009 (ip), vehicle: saline with Tween-80.
Setting [3] is: dose: 50.0 mg/kg/injection, schedule: Q01DX009 (ip), vehicle: Klucel (hydroxypropylcellulose) (HPC).
Where [4] appears, read: dose: 100.0 mg/kg/injection, schedule: Q01DX009 (ip), vehicle: Klucel (hydroxypropylcellulose) (HPC).
The mark [5] stands for this setting: dose: 50.0 mg/kg/injection, schedule: Q01DX005 (ip), vehicle: Klucel (hydroxypropylcellulose) (HPC).
Where [6] appears, read: dose: 100.0 mg/kg/injection, schedule: Q01DX005 (ip), vehicle: Klucel (hydroxypropylcellulose) (HPC).
The mark [7] stands for this setting: dose: 60.0 mg/kg/injection, schedule: Q01DX005 (ip), vehicle: saline with Tween-80.
Setting [8] is: dose: 120.0 mg/kg/injection, schedule: Q01DX005 (ip), vehicle: saline with Tween-80.
[9] abbreviates: dose: 240.0 mg/kg/injection, schedule: Q01DX005 (ip), vehicle: saline with Tween-80.
Where [10] appears, read: dose: 12.5 mg/kg/injection, schedule: Q01DX009 (ip), vehicle: saline with Tween-80.
The mark [11] stands for this setting: dose: 25.0 mg/kg/injection, schedule: Q01DX009 (ip), vehicle: saline with Tween-80.
[12] abbreviates: dose: 200.0 mg/kg/injection, schedule: Q01DX009 (ip), vehicle: Klucel (hydroxypropylcellulose) (HPC).

Where “and” joins values, the source holds several entries; their conditions need not be identical. Equal values may be shown once. Inconclusive results and toxic doses are left out.

Turning to `CS(=O)(=O)OCCN(CCOS(C)(=O)=O)c1cccc(C(F)(F)F)c1`, the T/C (dose: 0.75 mg/kg/injection, schedule: Q04DX003 (ip), vehicle: saline) was 100 % of control; the T/C (dose: 1.5 mg/kg/injection, schedule: Q04DX003 (ip), vehicle: saline) is 100 % of control; the T/C (dose: 3.0 mg/kg/injection, schedule: Q04DX003 (ip), vehicle: saline) was 100 % of control; the T/C (dose: 25.0 mg/kg/injection, schedule: Q04DX003 (ip), vehicle: saline with Tween-80) is 170 % of control and 212 % of control; the T/C under setting [1] was 159 % of control; the T/C (dose: 50.0 mg/kg/injection, schedule: Q04DX003 (ip), vehicle: saline with Tween-80) is 216 % of control. Moreover, the T/C by setting is: under setting [2], 213 % of control; (dose: 100.0 mg/kg/injection, schedule: Q04DX003 (ip), vehicle: saline with Tween-80) 87 % of control.

Regarding `COC(=O)c1cn[nH]c1CC(N)=O`, the T/C reads like this: (dose: 60.0 mg/kg/injection, schedule: Q01DX005 (ip), vehicle: saline) 100 % of control; (dose: 120.0 mg/kg/injection, schedule: Q01DX005 (ip), vehicle: saline) 103 % of control; (dose: 240.0 mg/kg/injection, schedule: Q01DX005 (ip), vehicle: saline) 103 % of control.

Consider `O=[N+]([O-])c1cccc(C2CC(c3ccccc3)=Nc3ccccc3S2)c1` (stereo not given), for which the T/C is 107 % of control under setting [3] and 100 % of control under setting [4].

On to `COc1ccc(-n2cnc3c(cnn3C)c2=O)cc1`, for which the T/C runs as follows: (dose: 60.0 mg/kg/injection, schedule: Q01DX005 (ip), vehicle: Klucel (hydroxypropylcellulose) (HPC)) 100 % of control; (dose: 120.0 mg/kg/injection, schedule: Q01DX005 (ip), vehicle: Klucel (hydroxypropylcellulose) (HPC)) 91 % of control.

`Oc1ccc(Nc2ccc3[nH]c4ccccc4c3c2)cc1`: the T/C runs as follows: (dose: 25.0 mg/kg/injection, schedule: Q01DX005 (ip), vehicle: Klucel (hydroxypropylcellulose) (HPC)) 101 % of control; under setting [5], 106 % of control; under setting [6], 104 % of control.

In the case of `CCCCCOC(=O)CN(CC(=O)OCCCCC)c1ccc(C=O)cc1`, the T/C runs as follows: (dose: 25.0 mg/kg/injection, schedule: Q04DX003 (ip), vehicle: other) 95 % of control; (dose: 50.0 mg/kg/injection, schedule: Q04DX003 (ip), vehicle: other) 100 % of control; (dose: 100.0 mg/kg/injection, schedule: Q04DX003 (ip), vehicle: other) 100 % of control.

In the case of `COC(=O)c1c(-c2ccc(OC)cc2)c(-c2ccc(OC)cc2)[nH]c(=O)c1C#N`, the T/C by setting is: under setting [7], 100 % of control; under setting [8], 100 % of control; under setting [9], 99 % of control.

On to `CCc1cccc(CC)c1N1C(=O)C=CC1=O`, for which the T/C is 104 % of control (dose: 0.5 mg/kg/injection, schedule: Q01DX009 (ip), vehicle: Klucel (hydroxypropylcellulose) (HPC)); 99 % of control (dose: 1.0 mg/kg/injection, schedule: Q01DX009 (ip), vehicle: Klucel (hydroxypropylcellulose) (HPC)); 100 % of control (dose: 2.0 mg/kg/injection, schedule: Q01DX009 (ip), vehicle: Klucel (hydroxypropylcellulose) (HPC)); 105 % of control (dose: 4.0 mg/kg/injection, schedule: Q01DX009 (ip), vehicle: Klucel (hydroxypropylcellulose) (HPC)); 101 % of control (dose: 8.0 mg/kg/injection, schedule: Q01DX009 (ip), vehicle: Klucel (hydroxypropylcellulose) (HPC)); 96 % of control (dose: 16.0 mg/kg/injection, schedule: Q01DX009 (ip), vehicle: Klucel (hydroxypropylcellulose) (HPC)).

On to `CCC(=O)Nc1ccc(C(=O)NCCN(CC)CC)cc1`, for which the T/C was 105 % of control under setting [5]; 104 % of control under setting [6]; 100 % of control (dose: 200.0 mg/kg/injection, schedule: Q01DX005 (ip), vehicle: Klucel (hydroxypropylcellulose) (HPC)).

Consider `Nc1nc2c(c(=O)[nH]1)N(C=O)C(CNc1ccc(C(=O)N[C@@H](CCC(=O)O)C(=O)O)cc1)CN2` (stereo not given in full), for which the T/C runs as follows: (dose: 125.0 mg/kg/injection, schedule: Q04DX003 (ip), vehicle: saline) 108 % of control; (dose: 250.0 mg/kg/injection, schedule: Q04DX003 (ip), vehicle: saline) 99 % of control; (dose: 500.0 mg/kg/injection, schedule: Q04DX003 (ip), vehicle: saline) 99 % of control.

On to `O=C(N=Nc1c(Cl)c(O)c2ccccc2c1O)C(=O)Nc1ccc(Cl)c([N+](=O)[O-])c1`, for which the T/C is, setting by setting: under setting [1], 113 % of control; under setting [2], 112 % of control.

Regarding `Clc1ccc(-c2cc3cc4c(cc3[nH]2)Sc2ccccc2O4)cc1`, the T/C was 86 % of control (dose: 100.0 mg/kg/injection, schedule: Q04DX003 (ip), vehicle: saline); 86 % of control (dose: 200.0 mg/kg/injection, schedule: Q04DX003 (ip), vehicle: saline); 98 % of control (dose: 400.0 mg/kg/injection, schedule: Q04DX003 (ip), vehicle: saline).

With `CC1(C)N=C(N)N=C(N)N1c1ccc(CCC(=O)Nc2ccc(S(=O)(=O)F)cc2)cc1`, the T/C reads like this: (dose: 4.4 mg/kg/injection, schedule: Q01DX009 (ip), vehicle: saline with Tween-80) 155 % of control; (dose: 6.6 mg/kg/injection, schedule: Q01DX009 (ip), vehicle: saline with Tween-80) 150 % of control; (dose: 10.0 mg/kg/injection, schedule: Q01DX009 (ip), vehicle: saline with Tween-80) 160 % of control; under setting [10], 169 % of control; under setting [11], 180 % of control; (dose: 44.0 mg/kg/injection, schedule: Q01DX009 (ip), vehicle: saline with Tween-80) 168 % of control. Further, the T/C is, setting by setting: under setting [1], 177 % of control; (dose: 50.0 mg/kg/injection, schedule: Q01DX009 (ip), vehicle: saline) 93 % of control; (dose: 66.0 mg/kg/injection, schedule: Q01DX009 (ip), vehicle: saline with Tween-80) 177 % of control.

As for `O=P(c1ccccc1)(c1ccccc1)C(O)c1ccc(F)cc1` (stereo not given), the T/C reads like this: under setting [3], 89 % of control; under setting [4], 100 % of control; under setting [12], 93 % of control.

As to `Cc1nn(C(=O)c2ccncc2)c(C)c1N=Nc1cccc2ccccc12`, the T/C was 96 % of control under setting [3], 99 % of control under setting [4] and 96 % of control under setting [12].

For `N#CC1C(=O)NC(=O)C(C#N)C1c1cccc(O)c1` (stereo not given), the T/C reads like this: under setting [3], 96 % of control; under setting [4], 101 % of control; under setting [12], 97 % of control.

For the compound `COC(=O)Nc1nc2ccc(C3c4c(n[nH]c4C)CC(C)(O)C3C(C)=O)cc2[nH]1` (stereo not given), the T/C was 98 % of control under setting [7], 101 % of control under setting [8] and 101 % of control under setting [9].

For the compound `C1=C(c2ccccc2)C(c2ccc(OCCN3CCCCC3)cc2)Oc2ccccc21` (stereo not given), the T/C runs as follows: (dose: 50.0 mg/kg/injection, schedule: Q01DX005 (ip), vehicle: saline with Tween-80) 92 % of control; (dose: 100.0 mg/kg/injection, schedule: Q01DX005 (ip), vehicle: saline with Tween-80) 86 % of control.

As to `CC(=O)CCS(=O)Cc1ccccc1` (stereo not given), the T/C under setting [7] is 103 % of control, the T/C under setting [8] was 98 % of control and the T/C under setting [9] was 111 % of control.

In the case of `COP(=S)(OC)SCSc1ccc(Cl)cc1`, the T/C was 89 % of control under setting [10] and 91 % of control under setting [11].

Take `COc1cc2nc(C)[n+]3nc([O-])ccc3c2cc1OC`: the T/C is 112 % of control (dose: 60.0 mg/kg/injection, schedule: Q01DX005 (ip), vehicle: suspension in saline); 104 % of control (dose: 120.0 mg/kg/injection, schedule: Q01DX005 (ip), vehicle: suspension in saline); 108 % of control (dose: 240.0 mg/kg/injection, schedule: Q01DX005 (ip), vehicle: suspension in saline).

As for `O=C1CCCC2c3[nH]c4ccccc4c3CCN12` (stereo not given), the T/C is, setting by setting: (dose: 100.0 mg/kg/injection, schedule: Q04DX002 (ip), vehicle: Klucel (hydroxypropylcellulose) (HPC)) 97 % of control; (dose: 200.0 mg/kg/injection, schedule: Q04DX002 (ip), vehicle: Klucel (hydroxypropylcellulose) (HPC)) 100 % of control; (dose: 400.0 mg/kg/injection, schedule: Q04DX002 (ip), vehicle: Klucel (hydroxypropylcellulose) (HPC)) 96 % of control.
